Laboratory results reported in ChEMBL document CHEMBL5634188, “Expanding TPD Horizons: Innovative Strategies Targeting BCL6 and SMARCA2” (ACS Med Chem Lett, 2024).
pEC50: −log10 of the molar value.

How the values were obtained:
Type in all cases: cell-based
[1] = target: Protein cereblon/B-cell lymphoma 6 protein (Homo sapiens) (UniProt Q96SW2+P41182); assay: PROTAC activity at CRBN/N-terminal HiBiT tagged BCL6 in human HT-1080 cells assessed as induction of BCL6 degradation by measuring minimum efficacy incubated for 5 hrs by NANO-GLO HiBiT Lytic reagent based luminescence plate reader analysis
Chain of Protein cereblon/B-cell lymphoma 6 protein (Homo sapiens) (Q96SW2 whole entry, looked up, other chains not shown): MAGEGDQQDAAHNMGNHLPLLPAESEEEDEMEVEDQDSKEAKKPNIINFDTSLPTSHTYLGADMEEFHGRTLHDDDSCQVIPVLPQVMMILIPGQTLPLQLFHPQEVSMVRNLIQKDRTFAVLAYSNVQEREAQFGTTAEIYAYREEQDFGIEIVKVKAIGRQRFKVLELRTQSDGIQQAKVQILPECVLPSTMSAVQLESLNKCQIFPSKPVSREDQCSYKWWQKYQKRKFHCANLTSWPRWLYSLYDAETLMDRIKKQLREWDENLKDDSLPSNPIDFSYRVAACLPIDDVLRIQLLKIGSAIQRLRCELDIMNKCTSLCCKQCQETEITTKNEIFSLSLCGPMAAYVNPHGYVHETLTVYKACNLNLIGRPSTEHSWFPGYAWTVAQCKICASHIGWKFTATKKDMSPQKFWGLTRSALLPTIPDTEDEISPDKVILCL

[2] = target: T1, Protein cereblon/SWI/SNF-related matrix-associated actin-dependent regulator of chromatin subfamily A member 2 (Homo sapiens, UniProt P51531+Q96SW2); assay: PROTAC activity at CRBN/N-terminal HiBiT-tagged SMARCA2 in human A549 cells assessed as induction of SMARCA2 degradation incubated for 6 hrs by Nano-Glo HiBiT Lytic reagent based luminescence plate reader analysis
T1 sequence (P51531 whole entry): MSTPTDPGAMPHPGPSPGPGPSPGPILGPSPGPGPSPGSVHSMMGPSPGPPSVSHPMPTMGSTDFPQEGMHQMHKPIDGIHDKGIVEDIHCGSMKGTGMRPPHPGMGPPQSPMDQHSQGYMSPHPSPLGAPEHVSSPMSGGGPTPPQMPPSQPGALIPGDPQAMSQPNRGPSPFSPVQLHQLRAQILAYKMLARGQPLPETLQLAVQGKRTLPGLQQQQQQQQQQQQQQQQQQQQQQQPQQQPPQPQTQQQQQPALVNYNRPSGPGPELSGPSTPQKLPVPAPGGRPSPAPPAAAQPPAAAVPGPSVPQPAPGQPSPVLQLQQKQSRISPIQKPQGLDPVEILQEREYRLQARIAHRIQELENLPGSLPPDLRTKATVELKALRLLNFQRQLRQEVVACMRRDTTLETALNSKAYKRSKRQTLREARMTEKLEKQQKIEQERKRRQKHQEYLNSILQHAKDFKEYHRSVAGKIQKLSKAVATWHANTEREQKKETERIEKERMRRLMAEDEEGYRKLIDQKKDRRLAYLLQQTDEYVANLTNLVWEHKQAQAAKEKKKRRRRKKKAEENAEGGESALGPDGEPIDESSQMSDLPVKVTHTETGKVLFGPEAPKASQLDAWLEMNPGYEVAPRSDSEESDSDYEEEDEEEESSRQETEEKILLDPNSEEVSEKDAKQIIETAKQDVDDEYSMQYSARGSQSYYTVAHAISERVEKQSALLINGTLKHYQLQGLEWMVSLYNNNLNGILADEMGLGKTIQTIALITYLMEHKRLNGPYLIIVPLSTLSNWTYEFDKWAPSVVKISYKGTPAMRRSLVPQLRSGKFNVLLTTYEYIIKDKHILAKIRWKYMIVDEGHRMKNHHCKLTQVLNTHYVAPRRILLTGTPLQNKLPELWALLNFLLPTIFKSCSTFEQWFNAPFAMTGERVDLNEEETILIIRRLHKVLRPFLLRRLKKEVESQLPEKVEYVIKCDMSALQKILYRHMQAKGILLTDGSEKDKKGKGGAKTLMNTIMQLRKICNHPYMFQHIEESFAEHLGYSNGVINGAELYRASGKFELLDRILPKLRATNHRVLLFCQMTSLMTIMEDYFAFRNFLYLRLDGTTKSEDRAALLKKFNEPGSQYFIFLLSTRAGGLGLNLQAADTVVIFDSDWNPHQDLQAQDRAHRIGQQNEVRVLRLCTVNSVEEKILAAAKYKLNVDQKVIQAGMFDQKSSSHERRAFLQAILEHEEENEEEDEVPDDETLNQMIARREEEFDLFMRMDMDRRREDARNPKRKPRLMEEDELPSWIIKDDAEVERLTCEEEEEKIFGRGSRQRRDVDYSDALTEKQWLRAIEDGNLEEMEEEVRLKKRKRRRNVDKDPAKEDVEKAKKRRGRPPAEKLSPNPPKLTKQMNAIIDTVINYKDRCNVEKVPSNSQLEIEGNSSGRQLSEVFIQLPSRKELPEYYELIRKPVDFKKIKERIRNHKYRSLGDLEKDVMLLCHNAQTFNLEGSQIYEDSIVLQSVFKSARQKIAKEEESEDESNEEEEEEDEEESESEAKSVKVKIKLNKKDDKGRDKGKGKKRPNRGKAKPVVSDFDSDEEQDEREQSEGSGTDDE
T1 sequence (Q96SW2 whole entry): as the sequence (Q96SW2 whole entry, looked up, other chains not shown) above

[3] = target: T1, Protein cereblon/SWI/SNF-related matrix-associated actin-dependent regulator of chromatin subfamily A member 2; assay: PROTAC activity at CRBN/N-terminal HiBiT-tagged SMARCA2 in human A549 cells assessed as induction of SMARCA2 degradation by measuring maximal efficacy incubated for 6 hrs by Nano-Glo HiBiT Lytic reagent based luminescence plate reader analysis relative to control
[4] = target: Protein cereblon/B-cell lymphoma 6 protein (Homo sapiens, UniProt P41182+Q96SW2); assay: PROTAC activity at CRBN/N-terminal HiBiT tagged BCL6 in human HT-1080 cells assessed as induction of BCL6 degradation incubated for 5 hrs by NANO-GLO HiBiT Lytic reagent based luminescence plate reader analysis
Chain of Protein cereblon/B-cell lymphoma 6 protein (Q96SW2 whole entry, looked up, other chains not shown): as above

SMILES | Emin [1] [%] | DC50 [2] [nM] | further results
Cn1c(=O)c2c(c3cc(Nc4nc(N5CCN(CC6CCN(c7cccc8c7C(=O)N(C7CCC(=O)NC7=O)C8=O)CC6)CC5)ncc4Cl)ccc31)N[C@@H](C1CC1)C(F)(F)CO2 (stereo not given in full) | < 30 | – | –
Nc1nnc(-c2ccccc2O)cc1C1C[C@H]2COC[C@@H](C1)N2c1cccc(OC2CCN(C(=O)CCC3CN(c4cccc5c4CCN5[C@@H]4CCC(=O)NC4=O)C3)CC2)c1 (stereo not given in full) | – | 13 | –
CN(c1cccc(N2CCC(O)(CC(=O)N3CCC(Oc4cccc(N5[C@@H]6COC[C@H]5CC(c5cc(-c7ccccc7O)nnc5N)C6)c4)CC3)CC2)c1)C1CCC(=O)NC1=O (stereo not given in full) | – | 13.1 | –
C[C@H]1CN(c2ncc(Cl)c(Nc3ccc4c(c3)c3c(c(=O)n4C)OCC(F)(F)[C@H](C4CC4)N3)n2)CCN1CC1CCN(c2cccc3c(C4CCC(=O)NC4=O)nn(C)c23)CC1 (stereo not given in full) | < 30 | – | –

More lines, main results first:

Emin [1] [%] | DC50 [2] [nM] | SMILES | further results
– | 5.8 | Nc1nnc(-c2ccccc2O)cc1C1C[C@H]2COC[C@@H](C1)N2c1cccc(OC2CCN(C(=O)CC3(O)CCN(c4cccc5c4CCN5C4CCC(=O)NC4=O)CC3)CC2)c1 (stereo not given in full) | Emax [3]: 22.9%
< 30 | – | C[C@H](C1CCN(c2ncc(Cl)c(Nc3ccc4c(c3)c3c(c(=O)n4C)OCC(F)(F)[C@H](C4CC4)N3)n2)CC1)C1CCN(c2cccc3c(C4CCC(=O)NC4=O)nn(C)c23)CC1 (stereo not given in full) | pEC50 [4]: ≥ 7.60
– | 9.47 | CN(C(=O)N1CCC(Oc2cccc(N3[C@@H]4COC[C@H]3CC(c3cc(-c5ccccc5O)nnc3N)C4)c2)CC1)C1CCN(c2cccc3c2CCN3[C@@H]2CCC(=O)NC2=O)CC1 (stereo not given in full) | –
< 30 | – | Cn1nc(C2CCC(=O)NC2=O)c2cccc(N3CCN(CC4CCN(c5ncc(Cl)c(Nc6ccc7c(c6)c6c(c(=O)n7C)OCC(F)(F)[C@H](C7CC7)N6)n5)CC4)CC3)c21 (stereo not given in full) | –
